Experimental findings from patent publication US20250019385A1, “SPIROCYCLIC ANNULATED 2-AMINO-3-CYANO THIOPHENES AND DERIVATIVES FOR THE TREATMENT OF CANCER” (Boehringer Ingelheim International GmbH, priority 2023, published 2025) are described below.

Structures are written as SMILES. Values after ≈ are worked out from the molar mass of the structure shown.

Sequence of KRAS (G12D)::SOS1 protein-protein interaction (P01116 other isoform, or with tags, fused parts or gaps G12D): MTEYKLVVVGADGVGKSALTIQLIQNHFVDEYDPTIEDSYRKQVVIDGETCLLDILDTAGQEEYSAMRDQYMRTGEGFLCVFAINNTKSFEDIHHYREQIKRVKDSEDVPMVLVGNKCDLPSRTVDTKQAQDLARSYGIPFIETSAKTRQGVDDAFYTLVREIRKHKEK

The first data set deals with KRAS (G12D)::SOS1 protein-protein interaction (Homo sapiens (Human), UniProt P01116, G12D). In words: KRAS::SOS1 AlphaScreen binding assay (KRAS G12D). The settings on record: GDP. In a few lines:
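AlphaScreen assay with KRAS G12D (1-169, 6His/avi-tagged, 10 nM), GST-SOS1 564-1049 (5 nM) and GDP (10 μM) in PBS, 0.1% BSA, 0.05% Tween 20; compound up to 100 μM top concentration, eleven fivefold dilutions in duplicate. After 30 min, glutathione acceptor and streptavidin donor beads (10 μg/mL each) were added and signal read after a further 60 min at room temperature in the dark; IC50 from 4-parameter logistic fit.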
Compound `C[C@H](Oc1nc(-c2onc3c2CCC[C@@]32CCCc3sc(N)c(C#N)c32)nc2c1n(C)c(=O)n2[C@H]1CCCOC1)[C@@H]1CCCN1C` [I-11] came in with an IC50 of 6 nM.
The compound `C[C@H](Oc1nc(-c2noc3c2CCC[C@@]32CCCc3sc(N)c(C#N)c32)nc2c1CCO[C@]21CCOC1)[C@@H]1CCCN1C` [II-9b] registered a half-inhibitory concentration (IC50) of 1 nM.
On the same count and under the same terms, the same measure for `CCn1c(=O)n([C@@H]2CCCOC2)c2nc(-c3onc4c3CCC[C@@]43CCCc4sc(N)c(C#N)c43)nc(O[C@@H](C)[C@@H]3CCCN3C)c21` [I-30]: 2 nM.
For the compound `C[C@H](Oc1nc(-c2onc3c2CCC[C@@]32CCCc3sc(N)c(C#N)c32)nc2c1[nH]c(=O)n2[C@@H]1CCOC1)[C@@H]1CCCN1C` [I-8], the concentration for half-maximal inhibition (IC50) came out at 1 nM.

A further data set relates to NCI-H358 cells. Briefly: NCI-H358 CTG proliferation assay (120 h) (NSCLC, G12C). The format is cell-based. The conditions noted are these: Homo sapiens. As for the experimental part:
(§1) NCI-H358 cells (ATCC No. CRL-5807) are dispensed into black 384-well plates, flat and clear bottom (Greiner, PNr. 781091) at a density of 200 cells per well in 60 μl RPMI-1640 ATCC-Formulation (Gibco #A10491)+10% FCS (fetal calf serum). Cells are incubated overnight at 37° C. in a humidified tissue culture incubator at 5% CO2. Compounds (10 mM stock in DMSO) are added at logarithmic dose series using the ECHO acoustic liquid handler system (Beckman Coulter), normalizing for added DMSO and including DMSO controls. All compound treatments are performed in technical duplicates. For the TO time point measurement, untreated cells are analyzed at the time of compound addition. Plates are incubated for 120 h, and cell viability is measured using CellTiter-Glo luminescent cell viability reagent (Promega product code G7570). Viability (stated as percent of control) is defined as relative luminescence units RLU of each well divided by the RLU of cells in DMSO controls. IC50 values are determined from viability measurements by non-linear regression using a four-parameter model.
(§2) IC50 values of representative compounds according to the invention measured with these assays in the indicated cell lines are presented in Table 46.
Compound `C[C@H](Oc1nc(-c2onc3c2CCC[C@@]32CCCc3sc(N)c(C#N)c32)nc2c1n(C)c(=O)n2[C@H]1CCCOC1)[C@@H]1CCCN1C` [I-11] had an IC50 of 387 nM.
For `C[C@H](Oc1nc(-c2noc3c2CCC[C@@]32CCCc3sc(N)c(C#N)c32)nc2c1CCO[C@]21CCOC1)[C@@H]1CCCN1C` [II-9b], the IC50 turned out to be 5 nM.
On the same count and under the same terms, the same measure for `CCn1c(=O)n([C@@H]2CCCOC2)c2nc(-c3onc4c3CCC[C@@]43CCCc4sc(N)c(C#N)c43)nc(O[C@@H](C)[C@@H]3CCCN3C)c21` [I-30]: 7 nM; for `C[C@H](Oc1nc(-c2onc3c2CCC[C@@]32CCCc3sc(N)c(C#N)c32)nc2c1[nH]c(=O)n2[C@@H]1CCOC1)[C@@H]1CCCN1C` [I-8]: 9 nM.

Another data set concerns LOVO cells. Briefly: LOVO CTG proliferation assay (120 h) (CRC, G13D). The format is cell-based. The conditions noted are these: Homo sapiens. Here is the method: as §1, with “LOVO” for “NCI-H358”, “CCL-229)” for “CRL-5807)”, “1000” for “200”, “DMEM (Sigma D6429)+10%” for “RPMI-1640 ATCC-Formulation (Gibco #A10491)+10%”, “serum, HyClone, SH30084.03).” for “serum).”
as §2
Turning to `C[C@H](Oc1nc(-c2onc3c2CCC[C@@]32CCCc3sc(N)c(C#N)c32)nc2c1n(C)c(=O)n2[C@H]1CCCOC1)[C@@H]1CCCN1C` [I-11], inhibition was half-maximal at 541 nM (IC50).
Take `C[C@H](Oc1nc(-c2noc3c2CCC[C@@]32CCCc3sc(N)c(C#N)c32)nc2c1CCO[C@]21CCOC1)[C@@H]1CCCN1C` [II-9b]: the IC50 stood at 12 nM.
Compound `CCn1c(=O)n([C@@H]2CCCOC2)c2nc(-c3onc4c3CCC[C@@]43CCCc4sc(N)c(C#N)c43)nc(O[C@@H](C)[C@@H]3CCCN3C)c21` [I-30] came in with a 50% inhibitory concentration (IC50) of 7 nM.
For the compound `C[C@H](Oc1nc(-c2onc3c2CCC[C@@]32CCCc3sc(N)c(C#N)c32)nc2c1[nH]c(=O)n2[C@@H]1CCOC1)[C@@H]1CCCN1C` [I-8], the IC50 turned out to be 258 nM.

Tested on in a further data set: not listed separately
In words: Plasma protein binding assay (PPB), equilibrium dialysis. Type of data set: in vitro ADME. The settings on record: bovine, 10% FCS in PBS, read-out: PPB 10% FCS (% fu). As for the experimental part:
Binding of test compounds to plasma was determined using equilibrium dialysis (ED) and quantitative mass spectrometry interfaced with liquid chromatography (LC-MS). In brief, ED was performed with dialysis devices consisting of two chambers separated by a semipermeable membrane with a molecular weight cut-off of 5-10 kg/mol. One chamber was filled with 10% FCS in PBS containing 1-10 μmol/L test compound and the other chamber was filled with phosphate-buffer saline (PBS) with or without dextran. The dialysis chamber was incubated for 3-5 hours at 37° C. After incubation, protein was precipitated from aliquots of each chamber and the concentration of test compound in the supernatant of the plasma-containing compartment (cserum) and of the buffer-containing compartment (cbuffer) was determined by LC-MS. The fraction of unbound test compound (not bound to plasma) (f) was calculated according to the following equation: […]
For `C[C@H](Oc1nc(-c2onc3c2CCC[C@@]32CCCc3sc(N)c(C#N)c32)nc2c1n(C)c(=O)n2[C@H]1CCCOC1)[C@@H]1CCCN1C` [I-11], the fraction unbound is 0.06.
Consider `C[C@H](Oc1nc(-c2noc3c2CCC[C@@]32CCCc3sc(N)c(C#N)c32)nc2c1CCO[C@]21CCOC1)[C@@H]1CCCN1C` [II-9b], for which the fraction unbound is 0.09.
Same read-out and setting: the result for `CCn1c(=O)n([C@@H]2CCCOC2)c2nc(-c3onc4c3CCC[C@@]43CCCc4sc(N)c(C#N)c43)nc(O[C@@H](C)[C@@H]3CCCN3C)c21` [I-30] reads 0.08; that for `C[C@H](Oc1nc(-c2onc3c2CCC[C@@]32CCCc3sc(N)c(C#N)c32)nc2c1[nH]c(=O)n2[C@@H]1CCOC1)[C@@H]1CCCN1C` [I-8], 0.4.

Tested on in a further data set: not listed separately
Briefly: Solubility measurement (DMSO solution precipitation method). Type of data set: physicochemical. The settings on record: aqueous buffer, kinetic from dmso stock, McIlvaine buffer pH 4.5, 24 h, read-out: solubility pH 4.5. In a few lines:
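A 10 mM DMSO stock was diluted to 250 μM final in McIlvaine buffer at pH 4.5 or 6.8, then shaken 24 h at ambient temperature. After filtering off precipitate, filtrate concentration was quantified by LC-UV against a fully dissolved reference in acetonitrile/water (1:1).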
As for `C[C@H](Oc1nc(-c2onc3c2CCC[C@@]32CCCc3sc(N)c(C#N)c32)nc2c1n(C)c(=O)n2[C@H]1CCCOC1)[C@@H]1CCCN1C` [I-11], the solubility at 24 h is over 149 µg/mL.
Regarding `C[C@H](Oc1nc(-c2noc3c2CCC[C@@]32CCCc3sc(N)c(C#N)c32)nc2c1CCO[C@]21CCOC1)[C@@H]1CCCN1C` [II-9b], the solubility at 24 h is over 141 µg/mL.
On the same count and under the same terms, the same measure for `CCn1c(=O)n([C@@H]2CCCOC2)c2nc(-c3onc4c3CCC[C@@]43CCCc4sc(N)c(C#N)c43)nc(O[C@@H](C)[C@@H]3CCCN3C)c21` [I-30]: over 154 µg/mL; for `C[C@H](Oc1nc(-c2onc3c2CCC[C@@]32CCCc3sc(N)c(C#N)c32)nc2c1[nH]c(=O)n2[C@@H]1CCOC1)[C@@H]1CCCN1C` [I-8]: over 147 µg/mL.

Staying with this data set, now noted: aqueous buffer, kinetic from dmso stock, McIlvaine buffer pH 6.8, 24 h, read-out: solubility pH 6.8.
Regarding `C[C@H](Oc1nc(-c2onc3c2CCC[C@@]32CCCc3sc(N)c(C#N)c32)nc2c1n(C)c(=O)n2[C@H]1CCCOC1)[C@@H]1CCCN1C` [I-11], the solubility at 24 h amounted to 99 µg/mL (≈ 154 µM).
Still for that read-out and setting: the result for `C[C@H](Oc1nc(-c2noc3c2CCC[C@@]32CCCc3sc(N)c(C#N)c32)nc2c1CCO[C@]21CCOC1)[C@@H]1CCCN1C` [II-9b] reads over 137 µg/mL; that for `CCn1c(=O)n([C@@H]2CCCOC2)c2nc(-c3onc4c3CCC[C@@]43CCCc4sc(N)c(C#N)c43)nc(O[C@@H](C)[C@@H]3CCCN3C)c21` [I-30], 88 µg/mL (≈ 134 µM); that for `C[C@H](Oc1nc(-c2onc3c2CCC[C@@]32CCCc3sc(N)c(C#N)c32)nc2c1[nH]c(=O)n2[C@@H]1CCOC1)[C@@H]1CCCN1C` [I-8], over 139 µg/mL.
